The text below walks through data of PMC6996298 (Frontiers in Plant Science, 2020).

One series has as its target T1, VvSWEET7 (Vitis vinifera, UniProt A0ACM8QLM4).
T1 construct: gene VIT_02s0025g02080; full-length cDNA in pYES-DEST52 (GAL1 promoter), expressed in hxt-null S. cerevisiae EBY.VW4000
T1 sequence (A0ACM8QLM4 1-260): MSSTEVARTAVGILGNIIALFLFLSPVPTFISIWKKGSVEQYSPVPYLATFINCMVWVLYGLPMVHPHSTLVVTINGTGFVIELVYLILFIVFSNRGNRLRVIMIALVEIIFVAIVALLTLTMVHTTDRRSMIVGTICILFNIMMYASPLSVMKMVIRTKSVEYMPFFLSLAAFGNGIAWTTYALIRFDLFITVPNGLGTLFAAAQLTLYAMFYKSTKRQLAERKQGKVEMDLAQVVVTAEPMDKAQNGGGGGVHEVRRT
In words: inhibition of D-[…]-glucose uptake in yeast EBY.VW4000. The series is classed as cell-based. Particulars: read-out: % inhibition at 500 mM.

Substrate in series [1]: OC[C@H]1O[C@@](CO)(O[C@H]2O[C@H](CO)[C@@H](O)[C@H](O)[C@H]2O)[C@@H](O)[C@@H]1O
In words: initial uptake of radiolabelled sugar in yeast EBY.VW4000, Michaelis-Menten. Format: cell-based, Vitis vinifera. The note with it: labelled compound, 7.5-125 mM, KH2PO4 pH 5.0, 30 °C, 3 min.

Turning to `OC[C@@H](O)[C@@H](O)[C@H](O)[C@@H](O)CO` [sorbitol], on VvSWEET7, the inhibition at 500000 µM was 38%.
The same measure, in the same setting: in the case of `OC[C@H]1OC(O)[C@H](O)[C@@H](O)[C@H]1O` (some centres unmarked) [galactose] it was 56%; in that of `OC[C@@H](O)[C@@H](O)[C@H](O)[C@H](O)CO` [mannitol], 29%; in that of `OCC1(O)OC[C@@H](O)[C@@H](O)[C@@H]1O` (some centres unmarked) [fructose], 79%.

B1: VvSWEET7 (Vitis vinifera) (protein)
chain: T1 sequence (A0ACM8QLM4 1-260)
notes: full-length cDNA in pYES-DEST52 (GAL1 promoter), expressed in hxt-null S. cerevisiae EBY.VW4000
As to B1, the Km in series [1] turned out to be 40.08 mM.
